Drawing on US20260285853A1, “COMPOUNDS AND METHODS FOR MODULATING SPLICING” (REMIX THERAPEUTICS INC., priority 2023, published 2026), this text covers AC50, IC50 and GI50 for 16 compounds.

Molecules are shown by their SMILES. Where only a bound is given, the exact number is not on record here.

Format in all cases: cell-based
The subject of test [1] is MYB mRNA. In words: Splicing RT-qPCR assay (THP), Table 2A. Particulars: Table 2A (THP); for AC50: AJ mRNA increase, read-out: MYB AJ (increase in alternative junction mRNA, AC50); for IC50: CJ mRNA decrease, read-out: MYB CJ (decrease in canonical junction mRNA, IC50). On the technique in general: In qPCR the cycle at which signal appears reflects the starting amount.
The subject of test [2] is SH-SY5Y (human neuroblastoma) cells. In words: Cell viability, Cell Titer Glo 2.0 assay. The settings on record: read-out: Viability SHSY5Y.3 GI50. A digest of the protocol:
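SH-SY5Y neuroblastoma cells are exposed to test compounds for 72 hours at 37 °C and 5% CO2, with final DMSO held at 0.1%. Cell viability is then measured with the CellTiter-Glo 2.0 assay.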
(In general: ATP-based viability assays read luminescence as a measure of living cells.)

Test [3] concerns MYB mRNA. Briefly: Gene panel canonical junction qPCR assay, decrease in CJ mRNA, Table 3. Particulars: decrease in canonical junction (CJ) mRNA, gene panel qPCR, Table 3. A digest of the protocol:
(§1)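 A673 cells were plated, left to adhere for 24 h, then dosed; K562 cells were plated in 96- or 384-well format and dosed directly. Both were incubated 24 h at 37 °C with an 11-point 3-fold series (top 10 uM final). Canonical junction mRNA was then read by cDNA synthesis and qPCR.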

Test [4] deals with HTT mRNA. The test is described as above. The settings on record: decrease in canonical junction (CJ) mRNA, gene panel qPCR, Table 3. The gist of the method: as §1
In test [5] the test system is HTT mRNA. In words: Splicing RT-qPCR assay (THP), Table 2A. Particulars: Table 2A (THP); for AC50: AJ mRNA increase, read-out: HTT AJ (increase in alternative junction mRNA, AC50); for IC50: CJ mRNA decrease, read-out: HTT CJ (decrease in canonical junction mRNA, IC50).

A word on the AC50: it is the concentration at which the activity in the assay is half-maximal. For orientation: IC50 means the concentration that gives 50% inhibition. As a reminder, the GI50 is the concentration at which growth is held to half of that of the control. `Cc1cn2cc(NC(=O)c3c(C4CC4)cc(N4CCC(NC5CC5)CC4)c4cn(C)nc34)nc2c(C)n1` [Compound 474, 6-cyclopropyl-4-[4-(cyclopropylamino)-1-piperidyl]-N-(6,8-dimethyl-imidazo[1,2-a]-pyrazin-2-yl)-2-methyl-indazole-7-carboxamide]: the AC50 in test [1] and in test [5] was greater than 10 µM throughout. For the same compound, the IC50 in test [1], in test [3], in test [4] and in test [5] was greater than 10 µM each time. Besides, the GI50 in test [2] is 1 to 10 µM.
For the compound `COc1cn2nc(C)cc2cc1NC(=O)c1ccc(N2CCC(NC3CC3)CC2)c2cn(C)nc12` [Compound 475, 4-[4-(cyclopropylamino)-1-piperidyl]-N-(6-methoxy-2-methyl-pyrazolo[1,5-a]pyridin-5-yl)-2-methyl-indazole-7-carboxamide], the AC50 in test [1] is 0.1 to 1 µM; in test [5], greater than 10 µM. The half-maximal inhibitory concentration (IC50) in test [1] is 0.1 to 1 µM; in test [3], 0.1 to 1 µM; in test [4] it was greater than 10 µM; in test [5], greater than 10 µM. Further, the GI50 in test [2] is 1 to 10 µM.
Regarding `Cn1cc2cc(NC(=O)c3ccc(N4CCC(NC5CC5)CC4)c4cn(C)nc34)c(C(F)(F)F)cc2n1` [Compound 476, 4-[4-(cyclopropyl-amino)-1-piperidyl]-2-methyl-N-[2-methyl-6-(trifluoromethyl)-indazol-5-yl]indazole-7-carboxamide], the values for the AC50 in test [1] and in test [5] were 1 to 10 µM and greater than 10 µM, respectively. The IC50 in test [1] was 1 to 10 µM; in test [3], 1 to 10 µM; in test [4] it was greater than 10 µM; in test [5] it was greater than 10 µM. Moreover, in test [2], the GI50 was greater than 10 µM.
Regarding `COc1cc2nn(C)cc2cc1NC(=O)c1ccc(N2CCC(NC3CC3)CC2)c2c(F)n(C)nc12` [Compound 477], the AC50 in test [1] and in test [5] was 0.1 to 1 µM in each case. The IC50 in test [1], in test [3], in test [4] and in test [5] was 0.1 to 1 µM each time. Further, the GI50 in test [2] fell in the range of 0.1 to 1 µM.
For `Cc1cn2cc(NC(=O)c3ccc(N4CCC(NC5CC5)CC4)c4cn(C)nc34)c(F)c2c(C)n1` [Compound 478, 4-[4-(cyclopropyl-amino)-1-piperidyl]-N-(8-fluoro-1,3-dimethyl-pyrrolo[1,2-a]-pyrazin-7-yl)-2-methyl-indazole-7-carboxamide], the AC50 in test [1] and in test [5] was greater than 10 µM each time. Besides, the IC50 in test [1], in test [3], in test [4] and in test [5] was greater than 10 µM throughout. For the same compound, the GI50 in test [2] lay within 1 to 10 µM.
On to `Cc1cn2cc(NC(=O)c3ccc(N4CCC(NC5CC5)CC4)c4cn(C)nc34)nc2c(Cl)n1` [Compound 479, N-(8-chloro-6-methyl-imidazo[1,2-a]-pyrazin-2-yl)-4-[4-(cyclopropylamino)-1-piperidyl]-2-methyl-indazole-7-carboxamide], for which the AC50 in test [1] is 0.1 to 1 µM; in test [5], greater than 10 µM. In addition, the IC50 in test [1] is 0.1 to 1 µM; in test [3], 0.1 to 1 µM; in test [4], greater than 10 µM; in test [5] it was greater than 10 µM. The GI50 in test [2] was in the range of 1 to 10 µM.
Regarding `Cn1cc2c(N3CCC(NC4CC4)CC3)cc(F)c(C(=O)Nc3ccc4c(c3)COB4O)c2n1` [Compound 481, 4-(4-(cyclopropyl-amino)piperidin-1-yl)-6-fluoro-N-(1-hydroxy-1,3-dihydrobenzo[c][1,2]-oxaborol-5-y1)-2-methyl-2H-indazole-7-carboxamide 2,2,2-trifluoroacetate], the AC50 in test [1] is 1 to 10 µM; in test [5] it was greater than 10 µM. In addition, the IC50 in test [1], in test [3], in test [4] and in test [5] was greater than 10 µM each time. The 50% growth inhibitory concentration (GI50) in test [2] lay within 1 to 10 µM.
Regarding `Cn1cc2c(N3CCC(NC4CC4)CC3)cc(F)c(C(=O)Nc3ccc4c(c3)B(O)OC4)c2n1` [Compound 482, 4-[4-(cyclopropyl-amino)-1-piperidy1]-6-fluoro-N-(1-hydroxy-3H-2,1-benzoxaborol-6-y1)-2-methyl-indazole-7-carboxamide 2,2,2-trifluoroacetate], the AC50 in test [1] and in test [5] was greater than 10 µM each time. Besides, the IC50 in test [1], in test [3], in test [4] and in test [5] was greater than 10 µM each time. For the same compound, the GI50 in test [2] lay in the range of 1 to 10 µM.
Consider `Cc1cc2cc(NC(=O)c3ccc(N4CCC(NC5CC5)CC4)c4cn(C)nc34)sc2c(C)n1` [Compound 483, 4-[4-(cyclopropyl-amino)-1-piperidyl]-N-(5,7-dimethyl-thieno[2,3-c]-pyridin-2-yl)-2-methyl-indazole-7-carboxamide], for which the AC50 in test [1] and in test [5] was greater than 10 µM throughout. The IC50 in test [1], in test [3], in test [4] and in test [5] was greater than 10 µM throughout. Also, the GI50 in test [2] lay within 0.1 to 1 µM.
Take `Cc1cc2cc(NC(=O)c3c(F)cc(N4CCC(NC5CC5)CC4)c4cn(C)nc34)sc2c(C)n1` [Compound 484, 4-[4-(cyclopropyl-amino)-1-piperidyl]-N-(5,7-dimethyl-thieno[2,3-c]pyridin-2-yl)-6-fluoro-2-methyl-indazole-7-carboxamide]: the half-maximal activity concentration (AC50) in test [1] and in test [5] was greater than 10 µM each time. Also, the IC50 in test [1], in test [3], in test [4] and in test [5] was greater than 10 µM throughout. The GI50 in test [2] lay within 1 to 10 µM.
For `COc1cc2nn(C)cc2cc1NC(=O)c1ccc(N2CCC(NC3CC3)CC2)c2c(C)n(C)nc12` [Compound 485, 4-[4-(cyclopropylamino)-1-piperidyl]-N-(6-methoxy-2-methyl-indazol-5-yl)-2,3-dimethyl-indazole-7-carboxamide], the AC50 in test [1] and in test [5] was 0.1 to 1 µM each time. The IC50 in test [1], in test [3], in test [4] and in test [5] was 0.1 to 1 µM throughout. In addition, in test [2], the GI50 fell in the range of 0.1 to 1 µM.
With `Cc1cn2cc(NC(=O)c3ccc(N4CCC(NC5CC5)CC4)c4cn(C)nc34)nc2c(-c2ccns2)n1` [Compound 486, 4-(4-(cyclopropylamino)-piperidin-1-yl)-N-(8-(isothiazol-5-yl)-6-methyl-imidazo[1,2-a]-pyrazin-2-yl)-2-methyl-2H-indazole-7-carboxamide], the AC50 in test [1] and in test [5] was greater than 10 µM throughout. Also, the IC50 in test [1], in test [3], in test [4] and in test [5] was greater than 10 µM in each case. The GI50 in test [2] fell in the range of 1 to 10 µM.
With `Cc1cn2cc(NC(=O)c3ccc(N4CCC(NC5CC5)CC4)c4cn(C)nc34)nc2c(-c2ccn[nH]2)n1` [Compound 487, 4-(4-(cyclopropyl-amino)piperidin-1-yl)-2-methyl-N-(6-methyl-8-(1H-pyrazol-5-yl)imidazo[1,2-a]-pyrazin-2-yl)-2H-indazole-7-carboxamide 2,2,2-trifluoroacetate], the AC50 in test [1] and in test [5] was greater than 10 µM throughout. The IC50 was greater than 10 µM in test [1], greater than 10 µM in test [3], 1 to 10 µM in test [4] and 1 to 10 µM in test [5]. Further, the GI50 in test [2] fell in the range of 1 to 10 µM.
For the compound `COc1cn2nc(C)cc2cc1C(=O)Nc1ccc(N2CCNCC2)c2cn(C)nc12` [Compound 488, 6-methoxy-2-methyl-N-(2-methyl-4-piperazin-1-yl-indazol-7-yl) pyrazolo[1,5-a]pyridine-5-carboxamide], the AC50 in test [1] and in test [5] was greater than 10 µM in each case. For the same compound, the IC50 in test [1], in test [3], in test [4] and in test [5] was greater than 10 µM each time. Also, the GI50 in test [2] was greater than 10 µM.
For the compound `COc1cc2nn(C)cc2cc1C(=O)Nc1ccc(N2CCNCC2)c2cn(C)nc12` [Compound 489, 6-methoxy-2-methyl-N-(2-methyl-4-piperazin-1-yl-indazol-7-yl)-indazole-5-carboxamide], the half-maximal activity concentration (AC50) in test [1] and in test [5] was greater than 10 µM in each case. In addition, the half-maximal inhibitory concentration (IC50) in test [1], in test [3], in test [4] and in test [5] was greater than 10 µM each time. The GI50 in test [2] is greater than 10 µM.
With `CC1OB(O)c2cc(NC(=O)c3c(F)cc(N4CCC(NC5CC5)CC4)c4cn(C)nc34)ccc21` (stereo not shown) [Compound 490, 4-(4-(cyclopropylamino)piperidin-1-yl)-6-fluoro-N-(1-hydroxy-3-methyl-1,3-dihydrobenzo[c]-[1,2]oxaborol-6-yl)-2-methyl-2H-indazole-7-carboxamide 2,2,2-trifluoroacetate], the AC50 in test [1] and in test [5] was greater than 10 µM each time. Moreover, the IC50 was 1 to 10 µM in test [1], 1 to 10 µM in test [3], greater than 10 µM in test [4] and greater than 10 µM in test [5]. For the same compound, the GI50 in test [2] fell in the range of 1 to 10 µM.
